Measured values: the supplement of paper PMC10307832

How the values were obtained:
Experiment in all cases: relative viability (nuclei count vs DMSO), 5 days (fraction); higher = more cells survive
[1] = compound: COc1ccc(-c2ccc3c(N4CCOC[C@@H]4C)nc(N4CCOC[C@@H]4C)nc3n2)cc1CO [AZD8055] + COc1cccc2cc(-c3nc([C@H]4CC[C@H](C(=O)O)CC4)n4ncnc(N)c34)[nH]c12 [OSI-027] (partner 0.5 µM)
How it was run: (§1)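 Dosing by pin tool came one day after lung cancer cell lines were seeded in 1536-well plates, using either one drug or a fixed anchor-drug dose plus five library-drug doses (not always all listed) in √10 steps. After 5 days, nuclei were counted on 4× images. Relative viability is treated-well nuclei count divided by vehicle-well nuclei count, and values are medians of duplicate plates.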

[2] = compound: COc1ccc(-c2ccc3c(N4CCOC[C@@H]4C)nc(N4CCOC[C@@H]4C)nc3n2)cc1CO [AZD8055] + CS(=O)(=O)CCNCc1ccc(-c2ccc3ncnc(Nc4ccc(OCc5cccc(F)c5)c(Cl)c4)c3c2)o1 [Lapatinib] (partner 2 µM)
How it was run: as §1

[3] = compound: COc1ccc(-c2ccc3c(N4CCOC[C@@H]4C)nc(N4CCOC[C@@H]4C)nc3n2)cc1CO [AZD8055] + C[C@]1(O)C[C@@H](c2nc(-c3ccc4ccc(-c5ccccc5)nc4c3)c3c(N)nccn32)C1 [Linsitinib] (partner 1 µM)
How it was run: as §1

[4] = compound: COc1ccc(-c2ccc3c(N4CCOC[C@@H]4C)nc(N4CCOC[C@@H]4C)nc3n2)cc1CO [AZD8055] + Cc1nc(NC(=O)N2CCC[C@H]2C(N)=O)sc1-c1ccnc(C(C)(C)C(F)(F)F)c1 [Alpelisib] (partner 2 µM)
How it was run: as §1

Cell Line	relative viability ([1]; first compound 0.01 µM)	relative viability ([1]; first compound 0.03162 µM)	relative viability ([1]; first compound 0.1 µM)	relative viability ([1]; first compound 0.3162 µM)	relative viability ([1]; first compound 1 µM)	relative viability ([2]; first compound 0.01 µM)	relative viability ([2]; first compound 0.03162 µM)	relative viability ([2]; first compound 0.1 µM)	relative viability ([2]; first compound 0.3162 µM)	relative viability ([2]; first compound 1 µM)	relative viability ([3]; first compound 0.01 µM)	relative viability ([3]; first compound 0.03162 µM)	relative viability ([3]; first compound 0.1 µM)	relative viability ([3]; first compound 0.3162 µM)	relative viability ([3]; first compound 1 µM)	relative viability ([4]; first compound 0.01 µM)	relative viability ([4]; first compound 0.03162 µM)	relative viability ([4]; first compound 0.1 µM)	relative viability ([4]; first compound 0.3162 µM)	relative viability ([4]; first compound 1 µM)
LXF-289	0.891	0.899	0.727	0.693	0.625	0.939	0.903	0.846	0.804	0.708	1	0.997	0.812	0.568	0.515	1.02	0.923	0.742	0.567	0.515
NCI-H23	0.673	0.555	0.626	0.426	0.323	1.15	0.804	0.792	0.369	0.35	0.521	0.484	0.294	0.244	0.259	0.668	0.604	0.406	0.268	0.269
NCI-H322M	0.56	0.602	0.582	0.476	0.431	0.536	0.551	0.51	0.5	0.466	0.891	0.771	0.557	0.497	0.461	0.696	0.0834	0.673	0.433	0.402
NCI-H358	0.871	0.708	0.576	0.29	0.164	0.444	0.41	0.394	0.254	0.246	0.728	0.561	0.429	0.209	0.236	0.714	0.786	0.75	0.295	0.216
NCI-H460	0.85	0.47	0.506	0.141	0.124	1.72	0.629	0.43	0.137	0.0984	0.555	0.213	0.206	0.0409	0.0438	0.314	0.195	0.148	0.0795	0.0574
NCI-H520	0.236	0.254	0.188	0.184	0.16	0.716	0.344	0.265	0.142	0.167	0.954	0.504	0.198	0.153	0.164	0.912	0.659	0.4	0.187	0.18
NCI-H596	0.685	0.731	0.582	0.413	0.315	1	0.682	0.661	0.535	0.463	0.991	0.792	0.457	0.386	0.395	0.479	0.385	0.348	0.348	0.324
NCI-H647	0.514	0.624	0.568	0.315	0.193	1.15	0.565	0.478	0.192	0.207	1.18	0.942	0.601	0.439	0.167	0.987	0.623	0.332	0.208	0.167
NCI-H650	0.528	0.492	0.602	0.368	0.344	0.838	0.73	0.58	0.341	0.319	0.889	0.575	0.556	0.342	0.293	0.968	0.834	0.695	0.385	0.385
NCI-H661	0.782	0.668	0.575	0.41	0.341	0.434	0.43	0.414	0.307	0.256	0.567	0.41	0.516	0.253	0.293	0.801	0.411	0.399	0.397	0.275
NCI-H727	0.674	0.604	0.49	0.351	0.409	0.807	0.818	0.685	0.378	0.308	0.246	0.246	0.302	0.28	0.248	0.564	0.435	0.356	0.255	0.269
NCI-H838	0.377	0.404	0.383	0.262	0.31	1.04	0.656	0.352	0.237	0.336	0.664	0.383	0.32	0.208	0.25	0.981	0.781	0.412	0.276	0.288
NCI-H1355	0.393	0.414	0.372	0.314	0.273	0.866	0.78	0.703	0.257	0.274	0.684	0.543	0.354	0.234	0.214	0.677	0.472	0.332	0.215	0.222
NCI-H1395	0.657	0.618	0.535	0.443	0.422	0.939	0.776	0.771	0.616	0.462	1.1	0.828	0.708	0.553	0.522	1.09	0.809	0.691	0.612	0.504
NCI-H1437	0.973	0.88	0.753	0.354	0.389	1.03	0.76	0.549	0.221	0.183	0.832	0.731	0.425	0.143	0.155	0.802	0.808	0.697	0.178	0.159
NCI-H1563	0.776	0.731	0.681	0.629	0.599	0.881	0.836	0.756	0.644	0.751	0.971	0.802	0.699	0.625	0.743	0.82	0.61	0.603	0.51	0.673
